Data set [1] addresses T1, LXRβ (Homo sapiens, UniProt P55055).
T1 sequence (P55055 222-460 limits assumed): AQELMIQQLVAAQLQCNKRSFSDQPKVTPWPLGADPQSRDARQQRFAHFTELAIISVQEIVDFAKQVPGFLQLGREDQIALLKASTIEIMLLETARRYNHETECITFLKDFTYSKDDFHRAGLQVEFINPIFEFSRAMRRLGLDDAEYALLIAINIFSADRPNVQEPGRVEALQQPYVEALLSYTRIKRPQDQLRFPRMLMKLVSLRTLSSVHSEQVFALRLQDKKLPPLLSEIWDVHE
The experiment in a line: SMRT2 corepressor binding to LXRβ, CRT. Type of data set: biochemical. Also noted: The CRT selectivity assay incorporates GST-tagged LXR-LBD; purchased Thermo Fisher Scientific PV4660. To be noted: for activity at 1 µM: ligand 1 µM, interpolated from concentration-response, normalized, heat map Figure 9A, read-out: SMRT2β, relative % activity at 1 μM.

The test system of a further data set is LXR. Put plainly: Corepressor (NCOR2, SMRT2) binding to LXR, CRT, statements across isoforms. Type of data set: biochemical. As to conditions: monoplex CRT, absence of coactivator.
In data set [2] the target is T1, LXRβ. The experiment in a line: NCOR2 corepressor binding to LXRβ, CRT. It is filed as biochemical. Also noted: The CRT selectivity assay incorporates GST-tagged LXR-LBD; purchased Thermo Fisher Scientific PV4660. As to conditions: for activity at 1 µM: ligand 1 µM, interpolated from concentration-response, normalized, heat map Figure 9A, read-out: NCOR2β, relative % activity at 1 μM.

For data set [3], the target named is T2, LXRα (Homo sapiens, UniProt Q13133).
T2 sequence (Q13133 209-447 limits assumed): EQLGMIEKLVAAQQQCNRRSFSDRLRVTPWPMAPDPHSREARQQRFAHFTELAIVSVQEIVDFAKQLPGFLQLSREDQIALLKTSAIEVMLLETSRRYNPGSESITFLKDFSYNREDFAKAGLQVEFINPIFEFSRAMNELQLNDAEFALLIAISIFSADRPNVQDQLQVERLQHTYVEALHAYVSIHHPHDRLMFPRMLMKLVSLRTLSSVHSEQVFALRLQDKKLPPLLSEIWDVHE
The experiment in a line: NCOR2 corepressor binding to LXRα, CRT. Type of data set: biochemical. Also noted: The CRT selectivity assay incorporates GST-tagged LXR-LBD; purchased Thermo Fisher Scientific PV4657. As to conditions: for activity at 1 µM: ligand 1 µM, interpolated from concentration-response, normalized, heat map Figure 9A, read-out: NCOR2α, relative % activity at 1 μM.

Data set [4] deals with T2, LXRα. The experiment in a line: SMRT2 corepressor binding to LXRα, CRT. It is filed as biochemical. Set-up: The CRT selectivity assay incorporates GST-tagged LXR-LBD; purchased Thermo Fisher Scientific PV4657. As to conditions: for activity at 1 µM: ligand 1 µM, interpolated from concentration-response, normalized, heat map Figure 9A, read-out: SMRT2α, relative % activity at 1 μM.

For data set [5], the system named is high-fat diet (HFD) mouse model. Also noted: method as in Lewandowski et al., 2021. To be noted: ref Lewandowski et al., 2021; cited from earlier work.
For data set [6], the target named is T2, LXRα. Put plainly: SRC-1 coactivator recruitment to LXRα, coregulator TR-FRET (CRT). It is filed as biochemical. Set-up: The CRT selectivity assay incorporates GST-tagged LXR-LBD; purchased Thermo Fisher Scientific PV4657. To be noted: maximal response relative to T0 (100%). (Time-resolved FRET reads energy transfer from a long-lived donor to a nearby acceptor.)

The next data set concerns E3/4FAD mice. Also noted: method as in Velma et al., 2024. As to conditions: ref Velma et al., 2024; cited from earlier work.
The subject of a further data set is primates. Set-up: method as in Quinet et al., 2009. As to conditions: 50 mg/kg/day p.o., returned to baseline at day 7, ref Quinet et al., 2009; cited from earlier work.
The next data set concerns Hamsters. Set-up: method as in Quinet et al., 2009. To be noted: ref Quinet et al., 2009; cited from earlier work.
For a further data set, the system named is participants. Also noted: method as in Katz et al., 2009. To be noted: all six participants on the highest 300 mg dose; ref Katz et al., 2009; cited from earlier work.
The next data set addresses T3, RXRα (Homo sapiens, UniProt P19793).
T3 construct: the reductionist system of NR-LBD with short coregulator peptides as used in the present work; purchased Thermo Fisher Scientific PV4799
Put plainly: Coactivator D22 recruitment Lanthascreen RXRα. Type of data set: biochemical. As to conditions: normalized to SR11237.

The subject of data set [7] is sterol response element (SRE). Put plainly: SRE-luc reporter assay in HepG2 cells. It is filed as cell-based, human. From the text:
Our phenotypic high-throughput screen (HTS) approach to identify nonlipogenic ABCA1 Inducers (NLAI) originally used counterscreening with a SREBP1c-luciferase reporter (linked to the SREBF1 gene promoter) in human hepatocarcinoma HepG2 cells ([Ben Aissa et al., 2021]). Unwanted lipogenesis is mediated by LXR agonists via direct transcriptional activation and indirectly by the effects of SREBP1c ([Schultz et al., 2000]; [Brown and Goldstein, 1997]). SREBP1c enhances transcription of genes required for synthesis of fatty acids and TG and as the dominant isoform in liver is associated most closely with lipogenesis and TG elevation ([Brown and Goldstein, 1997]). […] Binding of SREBP1c to the sterol response element (SRE) induces transcription of lipogenic genes associated with elevated TG. To better model the lipogenic axis in hepatocytes, we use HepG2 cells stably transfected with a nanoluciferase reporter downstream of a SRE promoter (SRE-luc), activation of which requires SREBP1c maturation.
HepG2 cells were cotransfected with SRE (LDLR)-NlucP SuperPiggyBac Transposon and a separate Transposase plasmid (System Biosciences). Cells were expanded for multiple passages followed by selection with puromycin (1 μg/ml). Stable cells constitutively express GFP allowed for FACS enrichment and/or cell cloning. Initially, stable pools were compared to low expressing and high expressing enriched pools. The optimal pool was selected based on assay performance (Z’) and was grown and maintained as above, with the addition of 1.0 μg/mL of puromycin biweekly.
Cells were split into flasks containing CS medium (EMEM supplemented with 10% charcoal stripped FBS (Gibco A52567-01)) and 1% P/S and grown at 37 °C /5% CO2 for 48 hr before plating. Cells were plated in 384-well, white clear tissue culture plates (Greiner 781098) and allowed to grow at 37 °C /5% CO2 for 24 hr before medium was aspirated and compound dilutions prepared in CS medium were added. Following a 24 hr incubation, the medium was aspirated, and cells were lysed/luminescence quantified using the Nano-Glo Luciferase Assay System (Promega N1130).
On the technique in general: In a reporter assay the amount or activity of a reporter protein is the signal.

The test system of the next data set is mice. Also noted: method as in Kick et al., 2015; Kirchgessner et al., 2015. As to conditions: highest dose 30 mg/kg qd, ref Kick et al., 2015, Kirchgessner et al.; cited from earlier work.

Each structure is given as a SMILES string.

T3 sequence (P19793 227-458 limits assumed): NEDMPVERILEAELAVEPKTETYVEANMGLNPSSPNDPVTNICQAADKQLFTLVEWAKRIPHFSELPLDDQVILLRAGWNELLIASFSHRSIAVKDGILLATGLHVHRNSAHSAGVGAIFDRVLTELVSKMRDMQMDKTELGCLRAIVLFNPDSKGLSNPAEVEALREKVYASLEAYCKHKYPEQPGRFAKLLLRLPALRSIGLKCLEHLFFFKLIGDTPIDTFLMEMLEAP

With `CCOC(=O)c1cccc(NC(=O)c2sc(Cl)cc2S(=O)(=O)N(C)c2ccc(OCC)c(OCC)c2)c1` [CL2-57, Ethyl3-(5-chloro-3-(N-(3,4-diethoxyphenyl)-N-methylsulfamoyl)thiophene-2-carboxamido) benzoate], the activity at 1 µM on LXRβ [1] stood at 99.4%; at LXRβ [2], 107%; on LXRα [3], 110%; at LXRα [4], 100%. The “Corepressor (NCOR2, SMRT2) displacement or stabilization, across LXR isoforms” value (“Corepressor” for short) with LXR is “little or no ability to displace NCOR2 and SMRT2 corepressors from LXR”. For the same molecule, the “Plasma and hepatic TG levels” value in data set [5] was “attenuated diet-induced increases in plasma and hepatic TG levels”.

With `CCOC(=O)c1cc(Cl)cc(NC(=O)c2sc(Cl)cc2S(=O)(=O)N(C)c2ccc(OCC)c(OC)c2)c1` [CL3-3, Ethyl3-chloro-5-(5-chloro-3-(N-(4-ethoxy-3-methoxyphenyl)-N-methylsulfamoyl)thiophene-2-carboxamido)benzoate], the “Efficacy profile for SRC-1 recruitment to LXRα” value on LXRα [6] is “partial agonist activity at LXRα”. The “ABCA1 expression, APOE lipidation, AD phenotypes and TG” value with E3/4FAD mice was “increased ABCA1 expression, enhanced APOE lipidation and reversed multiple AD phenotypes, without increasing TG”. Also, the activity at 1 µM on LXRβ [1] turned out to be 88.6%; at LXRβ [2] it was 104%; at LXRα [3], 100%; on LXRα [4], 87.9%. In addition, in the data set with LXR, the “Corepressor” value is “little or no ability to displace NCOR2 and SMRT2 corepressors from LXR”.

As to `Fc1ccc(-c2c3cccc(C(F)(F)F)c3nn2Cc2ccc(F)cc2Cl)cc1` [LXR-623], the “Liver TG” value with primates is recorded as “significant increase in liver TG was observed but only at high dose”. In addition, the “Plasma TG” value in the data set with Hamsters is recorded as “did not cause a dose-dependent increase in plasma TG”. For the same molecule, in the data set on participants, the “Adverse effects in clinical trial” value is “neurologic or psychiatric adverse effects”. Further, in the data set on LXR, the “Corepressor” value is “little or no ability to displace NCOR2 and SMRT2 corepressors from LXR”.

For `CC1(C)CCC(C)(C)c2cc(C3(c4ccc(C(=O)O)cc4)OCCO3)ccc21` [SR11237], on RXRα, the “RXRα CRT response” value was “RXRα-selective full agonists”.

In the case of `CC(C)(O)c1cn(-c2ccc(-c3cccc(S(C)(=O)=O)c3)cc2)c(C(C)(C)c2ccccc2Cl)n1` [XL652], in data set [7], the “SRE activation response/phenotype in HepG2” value is given as “little or no activation of SRE at submicromolar concentrations”. Moreover, the “Efficacy of SRE activation at concentrations ≤1 µM” value in [7] (concentrations ≤1 µM) is listed as 20–25 % of T0. Further, the activity at 1 µM at LXRβ [1] worked out at 102%; on LXRβ [2] it was 107%; at LXRα [3] it was 100%; at LXRα [4], 97%. Moreover, the “Effect on SMRT2 binding to LXRβ” value on LXRβ [1] (monoplex CRT) is given as “did not perturb SMRT2 binding to LXRβ”. Further, in the data set on mice, the “Plasma TGs” value is recorded as “elevated plasma TGs only at the highest dose”. In the data set on LXR, the “Corepressor” value was “strongly stabilized the corepressor-bound conformation”. The “Effect on NCOR2 binding to LXRβ” value at LXRβ [2] (monoplex CRT, absence of SRC1) is given as “weakly destabilized the NCOR2 complex with both LXR isoforms”. At LXRα [3] (monoplex CRT, absence of SRC1), the “Effect on NCOR2 binding to LXRα” value is given as “weakly destabilized the NCOR2 complex with both LXR isoforms”. Also, on LXRα [4] (monoplex CRT), the “Effect on SMRT2 binding to LXRα” value is listed as “stabilization of SMRT2 corepressor binding to LXRα”.
